What follows are compounds tested against T1, human metabotropic glutamate receptor 2 (mGluR2) (Homo sapiens, UniProt Q14416) (assay: [35S]GTPγS binding assay (Affinity to mGluR2)). Conditions: cell membrane fraction of HEK293 cells stably expressing human mGluR2; glutamic acid 10 μM.
T1 construct: expressed in transfected cells; co-expressing human SLC1A3), cell membrane fraction
Format: biochemical
Method: (Preparation of Cell Membrane Fraction of HEK293 Cells Stably Expressing Human Metabotropic Glutamate Receptor 2 (mGluR2))
HEK293 cells stably expressing human mGluR2 and human glutamate transporter SLC1A3 were cultured in a Dulbecco's modified Eagle's medium with 10% fetal bovine serum (50 units/mL of penicillin, 50 μg/mL of streptomycin, 60 μg/mL of geneticin, 400 μg/mL of hygromycin B and 2 mM of glutamine) at 37° C. under 5% CO2. Confluent cell cultures were washed twice with PBS(−), and then scraped off with a cell scraper, and subjected to centrifugal separation at 4° C. and 1500 rpm for 5 minutes for collecting cells. The centrifuged sediment (cell pellet) was homogenized in a 20 mM HEPES buffer containing 10 mM EDTA (pH 7.4) by using sonicator and centrifuged at 4° C. and 1500×g for 30 minutes. The supernatant (soluble fraction) was subjected to the centrifugal separation at 4° C. and 40,000×g for 30 minutes, and thus, insoluble fraction was obtained. After additional centrifugally washing the obtained fraction with 20 mM HEPES buffer containing 10 mM EDTA (pH 7.4), the pellet was centrifugally suspended with a 20 mM HEPES buffer containing 0.1 mM EDTA, and the cell membrane fraction was obtained by the centrifugal separation at 4° C. and 40,000×g for 30 minutes. The thus obtained cell membrane fraction was suspended in a 20 mM HEPES buffer containing 0.1 mM EDTA in a protein concentration of 3 mg/mL, which was stored at −80° C.
([^35S]GTPγS binding assay)
The frozen cell membrane fraction prepared as described above was thawed before use, and the resultant was diluted with a buffer for a binding assay (final concentrations: 20 mM HEPES, 100 mM NaCl, 1 mM MgCl2, 3 μM GDP, 300 μg/mL saponin, 0.1% BSA). The compound of each example was added to a cell membrane fraction containing 1.8 to 3 μg/assay of membrane protein on a plate, followed by incubation at room temperature for 30 minutes. Thereafter, with glutamic acid (in a final concentration of 10 μM) added thereto, incubation was performed at room temperature for 15 minutes, and thereafter, [^35S]GTPγS (in a final concentration of 0.8 kBq) and 588 μg WGA-SPA beads were added thereto, followed by incubation at room temperature for 1 hour. After the incubation, the plate was subjected to the centrifugal separation at 2,500 rpm and room temperature, and then, membrane cell binding radioactivity was measured with a top count.
A [^35S]GTPγS binding amount obtained by performing the above-described reaction in the absence of glutamic acid was defined as nonspecific binding, and a difference from a [^35S]GTPγS binding amount obtained in the presence of glutamic acid was defined as specific binding. On the basis of ratios of inhibiting the specific binding at various concentrations of the compounds of the respective examples, inhibition curves were obtained. Concentrations of the compounds of the respective examples at which the specific [^35S]GTPγS binding amount was suppressed by 50% (IC50 values) were calculated on the basis of the inhibition curves and shown in Table 3.

T1 sequence (Q14416 19-872): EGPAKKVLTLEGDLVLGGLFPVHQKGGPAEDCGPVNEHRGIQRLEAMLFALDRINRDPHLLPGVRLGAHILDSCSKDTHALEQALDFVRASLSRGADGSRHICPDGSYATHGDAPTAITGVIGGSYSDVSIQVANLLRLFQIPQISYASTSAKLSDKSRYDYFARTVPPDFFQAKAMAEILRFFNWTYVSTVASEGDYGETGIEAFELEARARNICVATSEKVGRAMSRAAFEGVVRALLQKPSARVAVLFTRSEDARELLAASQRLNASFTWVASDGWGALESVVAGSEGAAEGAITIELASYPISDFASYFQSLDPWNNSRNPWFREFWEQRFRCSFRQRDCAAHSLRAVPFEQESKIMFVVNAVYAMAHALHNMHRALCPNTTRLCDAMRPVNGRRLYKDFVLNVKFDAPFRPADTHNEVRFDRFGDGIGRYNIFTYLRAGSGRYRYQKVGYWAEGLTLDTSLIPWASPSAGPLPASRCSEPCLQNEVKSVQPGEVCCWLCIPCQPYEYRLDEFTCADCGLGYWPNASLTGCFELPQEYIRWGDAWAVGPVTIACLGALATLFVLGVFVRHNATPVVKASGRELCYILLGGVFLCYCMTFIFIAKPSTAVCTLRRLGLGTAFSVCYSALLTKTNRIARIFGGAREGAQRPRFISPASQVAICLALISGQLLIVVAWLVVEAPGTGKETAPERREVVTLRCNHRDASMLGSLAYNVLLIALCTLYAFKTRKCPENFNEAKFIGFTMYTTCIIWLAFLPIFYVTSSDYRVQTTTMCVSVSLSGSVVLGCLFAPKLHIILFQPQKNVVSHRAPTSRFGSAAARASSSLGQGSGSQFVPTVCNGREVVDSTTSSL

Row | IC50 [nM] | Compound
1 | 3.3 | CC(C)NS(=O)(=O)c1ccc(-c2nc(-c3ccc(OCF)cc3)n3c2CCO[C@H](C)C3)cc1 [Example 4]
2 | 2.7 | C[C@@H]1Cn2c(-c3ccc(OCF)cc3)nc(-c3ccc(S(=O)(=O)NC(C)(C)C)cc3)c2CCO1 [Example 5]
3 | 3.2 | CCOc1ccc(-c2nc(-c3ccc(S(=O)(=O)NC(C)C)cc3)c3n2C[C@@H](C)OCC3)cc1 [Example 6]
4 | 3.6 | CCOc1ccc(-c2nc(-c3ccc(S(=O)(=O)NC(C)(C)C)cc3)c3n2C[C@@H](C)OCC3)cc1 [Example 7]
5 | 2.7 | C[C@@H]1Cn2c(-c3ccc(OC(F)F)cc3)nc(-c3ccc(S(=O)(=O)NC(C)(C)C)cc3)c2CCO1 [Example 9]
6 | 1.8 | COc1ccc(-c2nc(-c3ccc(S(=O)(=O)NC(C)(C)C)cc3)c3n2C[C@@H](C)OCC3)cc1 [Example 10]
7 | 7.1 | CC(C)NS(=O)(=O)c1ccc(-c2nc(-c3ccc(OC4COC4)cc3)n3c2CCOC(C)C3)cc1 (centres unmarked) [Example 11]
8 | 1.4 | CC(C)NS(=O)(=O)c1ccc(-c2nc(-c3ccc(OC(F)F)cc3)n3c2CCO[C@H](C)C3)cc1 [Example 12]
9 | 4 | C[C@@H]1Cn2c(-c3ccc(F)cc3)nc(-c3ccc(S(=O)(=O)NC(C)(C)C)cc3)c2CCO1 [Example 13]
10 | 9.8 | CNS(=O)(=O)c1ccc(-c2nc(-c3ccc(F)cc3)n3c2CCO[C@H](C)C3)cc1 [Example 14]
11 | 4.1 | CCNS(=O)(=O)c1ccc(-c2nc(-c3ccc(F)cc3)n3c2CCO[C@H](C)C3)cc1 [Example 15]
12 | 4.2 | C[C@@H]1Cn2c(-c3ccc(F)cc3)nc(-c3ccc(S(=O)(=O)NC4CC4)cc3)c2CCO1 [Example 16]
13 | 2.3 | CC1Cn2c(-c3ccc(F)cc3)nc(-c3ccc(S(=O)(=O)NC4(C)CCC4)cc3)c2CCO1 (centres unmarked) [Example 17]
14 | 3.6 | C[C@@H]1Cn2c(-c3ccc(OCF)cc3)nc(-c3ccc(S(=O)(=O)NC4CC4)cc3)c2CCO1 [Example 18]
15 | 6.3 | C[C@@H]1Cn2c(-c3ccc(OCF)cc3)nc(-c3ccc(S(=O)(=O)NC4CCC4)cc3)c2CCO1 [Example 19]
16 | 21.8 | CNS(=O)(=O)c1ccc(-c2nc(-c3ccc(OCF)cc3)n3c2CCO[C@H](C)C3)cc1 [Example 20]
17 | 11.2 | CCNS(=O)(=O)c1ccc(-c2nc(-c3ccc(OCF)cc3)n3c2CCO[C@H](C)C3)cc1 [Example 21]
18 | 3.1 | CC1Cn2c(-c3ccc(OCF)cc3)nc(-c3ccc(S(=O)(=O)NC4(C)CCC4)cc3)c2CCO1 (centres unmarked) [Example 22]
19 | 1.6 | C[C@@H]1Cn2c(-c3ccc(OC(F)F)cc3)nc(-c3ccc(S(=O)(=O)NC4CC4)cc3)c2CCO1 [Example 23]
20 | 2.7 | C[C@@H]1Cn2c(-c3ccc(OC(F)F)cc3)nc(-c3ccc(S(=O)(=O)NC4CCC4)cc3)c2CCO1 [Example 24]
21 | 3.1 | CNS(=O)(=O)c1ccc(-c2nc(-c3ccc(OC(F)F)cc3)n3c2CCO[C@H](C)C3)cc1 [Example 25]
22 | 3.7 | CCNS(=O)(=O)c1ccc(-c2nc(-c3ccc(OC(F)F)cc3)n3c2CCO[C@H](C)C3)cc1 [Example 26]
23 | 2.3 | CC1Cn2c(-c3ccc(OC(F)F)cc3)nc(-c3ccc(S(=O)(=O)NC4(C)CCC4)cc3)c2CCO1 (centres unmarked) [Example 27]
24 | 7.4 | COc1ccc(-c2nc(-c3ccc(S(=O)(=O)NC4CC4)cc3)c3n2C[C@@H](C)OCC3)cc1 [Example 28]
25 | 26.8 | CNS(=O)(=O)c1ccc(-c2nc(-c3ccc(OC)cc3)n3c2CCO[C@H](C)C3)cc1 [Example 29]
26 | 7.4 | CCNS(=O)(=O)c1ccc(-c2nc(-c3ccc(OC)cc3)n3c2CCO[C@H](C)C3)cc1 [Example 30]
27 | 3 | COc1ccc(-c2nc(-c3ccc(S(=O)(=O)NC4(C)CCC4)cc3)c3n2CC(C)OCC3)cc1 (centres unmarked) [Example 31]

Row | IC50 [nM] | Compound
28 | 3.9 | CCOc1ccc(-c2nc(-c3ccc(S(=O)(=O)NC4CC4)cc3)c3n2C[C@@H](C)OCC3)cc1 [Example 32]
29 | 3 | CCOc1ccc(-c2nc(-c3ccc(S(=O)(=O)NC4CCC4)cc3)c3n2C[C@@H](C)OCC3)cc1 [Example 33]
30 | 7 | CCOc1ccc(-c2nc(-c3ccc(S(=O)(=O)NC)cc3)c3n2C[C@@H](C)OCC3)cc1 [Example 34]
31 | 1.8 | CCNS(=O)(=O)c1ccc(-c2nc(-c3ccc(OCC)cc3)n3c2CCO[C@H](C)C3)cc1 [Example 35]
32 | 1.3 | CCOc1ccc(-c2nc(-c3ccc(S(=O)(=O)NC4(C)CCC4)cc3)c3n2C[C@@H](C)OCC3)cc1 [Example 36]
33 | 2.3 | C[C@@H]1Cn2c(-c3ccc(F)cc3)nc(-c3ccc(S(=O)(=O)NC4CCC4)cc3)c2CCO1 [Example 37]
34 | 2.2 | O=S(=O)(NC1CCC1)c1ccc(-c2nc(-c3ccc(F)cc3)n3c2CCO[C@H](CF)C3)cc1 [Example 38]
35 | 0.9 | CC1(NS(=O)(=O)c2ccc(-c3nc(-c4ccc(F)cc4)n4c3CCO[C@H](CF)C4)cc2)CCC1 [Example 39]
36 | 2.6 | CC(C)NS(=O)(=O)c1ccc(-c2nc(-c3ccc(F)cc3)n3c2CCO[C@H](CF)C3)cc1 [Example 40]
37 | 2.1 | CC(C)(C)NS(=O)(=O)c1ccc(-c2nc(-c3ccc(F)cc3)n3c2CCO[C@H](CF)C3)cc1 [Example 41]
38 | 9.8 | CCNS(=O)(=O)c1ccc(-c2nc(-c3ccc(F)cc3)n3c2CCO[C@H](CF)C3)cc1 [Example 42]
39 | 3.1 | COc1ccc(-c2nc(-c3ccc(S(=O)(=O)NC(C)C)cc3)c3n2C[C@@H](CF)OCC3)cc1 [Example 43]
40 | 2.3 | COc1ccc(-c2nc(-c3ccc(S(=O)(=O)NC4CCC4)cc3)c3n2C[C@@H](CF)OCC3)cc1 [Example 44]
41 | 2.2 | COc1ccc(-c2nc(-c3ccc(S(=O)(=O)NC4(C)CCC4)cc3)c3n2C[C@@H](CF)OCC3)cc1 [Example 45]
42 | 6 | CCNS(=O)(=O)c1ccc(-c2nc(-c3ccc(OC)cc3)n3c2CCO[C@H](CF)C3)cc1 [Example 46]
43 | 6.3 | COc1ccc(-c2nc(-c3ccc(S(=O)(=O)NC4CC4)cc3)c3n2C[C@@H](CF)OCC3)cc1 [Example 47]
44 | 11.2 | CCOc1ccc(-c2nc(-c3ccc(S(=O)(=O)NC4CC4)cc3)c3n2C[C@@H](CF)OCC3)cc1 [Example 49]
45 | 9.5 | CCNS(=O)(=O)c1ccc(-c2nc(-c3ccc(OCC)cc3)n3c2CCO[C@H](CF)C3)cc1 [Example 50]
46 | 11.9 | CC(C)NS(=O)(=O)c1ccc(-c2nc(-c3ccc(OCF)cc3)n3c2CCO[C@H](CF)C3)cc1 [Example 51]
47 | 4.1 | CC(C)(C)NS(=O)(=O)c1ccc(-c2nc(-c3ccc(OCF)cc3)n3c2CCO[C@H](CF)C3)cc1 [Example 52]
48 | 4.7 | CC(C)NS(=O)(=O)c1ccc(-c2nc(-c3ccc(OC(F)F)cc3)n3c2CCO[C@H](CF)C3)cc1 [Example 53]
49 | 4.9 | CC(C)(C)NS(=O)(=O)c1ccc(-c2nc(-c3ccc(OC(F)F)cc3)n3c2CCO[C@H](CF)C3)cc1 [Example 54]
50 | 2.9 | CCOc1ccc(-c2nc(-c3ccc(S(=O)(=O)NC(C)(C)C)cc3)c3n2C[C@@H](CF)OCC3)cc1 [Example 55]
51 | 10.7 | CCNS(=O)(=O)c1ccc(-c2nc(-c3ccc(OCF)cc3)n3c2CCO[C@H](CF)C3)cc1 [Example 56]
52 | 4.1 | CC1(NS(=O)(=O)c2ccc(-c3nc(-c4ccc(OCF)cc4)n4c3CCO[C@H](CF)C4)cc2)CCC1 [Example 57]
53 | 15.3 | O=S(=O)(NC1CCC1)c1ccc(-c2nc(-c3ccc(OCF)cc3)n3c2CCO[C@H](CF)C3)cc1 [Example 58]

— US20160052937A1, “Tetrahydroimidazo[1,5-d][1,4]oxazepine compound” (Eisai R&D Management Co., Ltd., priority 2014, published 2016)
